Experimental data as given in PMC8994274, “A proteolysis-targeting chimera molecule selectively degrades ENL and inhibits malignant gene expression and tumor growth” (Journal of Hematology & Oncology, 2022).
Where two headings read alike, the source gives them in different places.

What was measured:
Molm-13 cells = test: Antiproliferation assay (XTT), Molm-13; details: for EC50: Homo sapiens, MOLM-13, 168 h, read-out: Antiproliferative activity, EC50, Molm13
Method: (§2) Proliferation inhibition assays for suspension blood cancer cells were performed using an XTT assay kit (Biotium), following our previous methods [22]. EC50 values were determined using Prism 5 and from at least three independent experiments.

ENL YEATS = target: T1, ENL YEATS (Homo sapiens, UniProt Q03111)
T1 sequence (Q03111 1-138): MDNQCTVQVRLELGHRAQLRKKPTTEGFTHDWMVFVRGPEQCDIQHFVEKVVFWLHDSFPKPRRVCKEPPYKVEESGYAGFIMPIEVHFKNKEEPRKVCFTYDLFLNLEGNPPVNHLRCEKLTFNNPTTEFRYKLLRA
From the text: cDNA for human ENL YEATS domain (1–138) was synthesized (by Genscript) and cloned into pET-28a vector.
(§3) AlphaScreen binding assay was developed using Perkin-Elmer AlphaScreen Histidine (Nickel Chelate) Detection Kit, following a reported protocol [39]. Data were imported into Prism (version 5.0), and IC50 values from 3 independent experiments with standard deviation were obtained by using a standard dose–response curve fitting.

Hela cells = test: Antiproliferation assay, Hela; details: Homo sapiens, read-out: Antiproliferative activity, EC50, Hela
Kasumi-1 cells = test: Antiproliferation assay (XTT), Kasumi-1; details: Homo sapiens, Kasumi 1, 168 h, read-out: Antiproliferative activity, EC50, Kasumi-1
Method: as §2

MV4;11 cells = test: Antiproliferation assay (XTT), MV4;11; details: Homo sapiens, MV4-11, 168 h, read-out: Antiproliferative activity, EC50, MV4;11
Method: as §2

AF9 YEATS = target: T2, AF9 YEATS (Homo sapiens, UniProt P42568); test: ALPHA assay, inhibition of the AF9 YEATS-H3K27ac interaction
T2 sequence (P42568 1-138 limits assumed): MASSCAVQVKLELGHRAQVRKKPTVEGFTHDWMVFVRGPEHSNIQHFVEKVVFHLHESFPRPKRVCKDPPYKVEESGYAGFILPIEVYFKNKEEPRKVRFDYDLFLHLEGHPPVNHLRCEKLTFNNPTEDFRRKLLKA
From the text: as §3

Panc1 cells = test: Antiproliferation assay, Panc1; details: Homo sapiens, PANC-1, 168 h, read-out: Antiproliferative activity, EC50, Panc1
ENL [1] = target: T3, ENL (Homo sapiens, UniProt Q03111); test: ENL degradation in MV4;11 cells (Western blot); format: cell-based; design: endogenous in cells; host or cells: MV4;11; details: for Dmax: MV4-11, MV4;11 cells, read-out: Dmax (maximal degradation) of ENL; for Dmax / DC50: 24 h; for DC50: read-out: DC50 (concentration at which a protein is reduced by 50%) of ENL
T3 sequence (Q03111 1-559): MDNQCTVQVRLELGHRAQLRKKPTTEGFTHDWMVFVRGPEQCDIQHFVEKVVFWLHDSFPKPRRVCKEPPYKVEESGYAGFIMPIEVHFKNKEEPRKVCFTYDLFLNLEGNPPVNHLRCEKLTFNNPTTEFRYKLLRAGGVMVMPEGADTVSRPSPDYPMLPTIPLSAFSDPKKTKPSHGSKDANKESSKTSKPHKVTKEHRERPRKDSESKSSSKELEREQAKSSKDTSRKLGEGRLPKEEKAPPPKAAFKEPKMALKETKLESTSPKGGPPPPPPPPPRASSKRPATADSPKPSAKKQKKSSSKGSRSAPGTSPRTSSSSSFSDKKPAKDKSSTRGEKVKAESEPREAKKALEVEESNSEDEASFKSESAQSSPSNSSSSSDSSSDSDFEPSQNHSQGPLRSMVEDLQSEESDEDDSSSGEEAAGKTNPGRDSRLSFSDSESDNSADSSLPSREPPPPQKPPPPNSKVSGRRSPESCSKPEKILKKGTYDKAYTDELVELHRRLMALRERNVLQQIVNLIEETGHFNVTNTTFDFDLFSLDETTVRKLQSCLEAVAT
Method: We next tested whether these compounds degrade ENL and AF9 in MV4;11 leukemia cells with the MLL1-AF4 oncogene. Upon compound treatment for 24 h, the cells were washed, lysed, and the lysates subjected to SDS-PAGE (sodium dodecyl sulfate–polyacrylamide gel electrophoresis) followed by detection with Western blot.
3 × 10^6 cells/well were treated with increasing concentrations of a compound for 1 day, and whole proteins were extracted. Equal amounts of proteins were separated on SDS-PAGE and transferred to PVDF membranes. The blots were probed with primary antibodies, followed by anti-rabbit IgG (Thermo Scientific) secondary antibodies. The primary antibodies against ENL (Cell signaling #14893), AF9 (Novusbio #NB100-1565), DOT1L (Cell signaling #77087), AFF4 (Abcam #ab103586), Cyclin T1 (Cell signaling #81464), H3K79me2 (Cell signaling #5427), H3K79me1 (Cell signaling #9398), Histone H3 (Cell signaling #4499), FLAG (Sigma-Aldrich #F1804), β-Actin (Cell signaling #4970) were used in this study.

RPMI-8226 cells = test: Antiproliferation assay (XTT), RPMI-8226; details: Homo sapiens, RPMI-8226, 168 h, read-out: Antiproliferative activity, EC50, RPMI-8226
Method: as §2

U266 cells = test: Antiproliferation assay (XTT), U266; details: Homo sapiens, U-266, 168 h, read-out: Antiproliferative activity, EC50, U266
Method: as §2

[2] = tested on: blood and solid tumor cells; test: Antiproliferation assay, ranges given over several cell lines; format: cell-based
Method: as §2

ENL [3] = target: T3, ENL; test: Rescue of compound 1-mediated ENL degradation in MV4;11 cells; format: cell-based; design: endogenous in cells; host or cells: MV4;11; details: 2 h pre-treatment, then co-treatment with 1 (500 nM) for 24 h
Method: (§1) 3 × 10^6 cells/well were treated with increasing concentrations of a compound for 1 day, and whole proteins were extracted. Equal amounts of proteins were separated on SDS-PAGE and transferred to PVDF membranes. The blots were probed with primary antibodies, followed by anti-rabbit IgG (Thermo Scientific) secondary antibodies.

ENL [4] = target: T3, ENL; test: ENL in nucleus and cytoplasm of MV4;11 cells (Western blot); format: cell-based; design: endogenous in cells; host or cells: MV4;11; details: 4 days, compound 1 at 500 nM
Method: Upon treatment of MV4;11 cells with these compounds for 4 days, cytoplasmic and nuclear proteins were separated and subjected to SDS-PAGE/Western blot.
as §1

Compound	EC50 (Molm-13 cells) [µM]	IC50 (ENL YEATS) [µM]	EC50 (Hela cells; 168 h) [µM]	EC50 (Kasumi-1 cells) [µM]	EC50 (MV4;11 cells) [µM]	IC50 (AF9 YEATS) [µM]	EC50 (Panc1 cells) [µM]	Dmax (ENL [1]) [%]	DC50 (ENL [1]; MV4;11 cells) [µM]	EC50 (RPMI-8226 cells) [µM]	EC50 (U266 cells) [µM]	Cytotoxic action over time ([2]; cancerous cells)	EC50 ([2]; non-selective activities, read-out: EC50 for blood and solid tumor cells (range over cell lines)) [µM]	EC50 (Hela cells; 72 h) [µM]	ENL reduction (ENL [1]; MV4;11 cells, even at 5 μM)	Antiproliferative activity, EC50, Molm13 (Molm-13 cells; 7-day incubation)	Effect on compound 1-mediated ENL degradation (ENL [3])	ENL level in the nucleus (ENL [4])
C[C@H]1CCCN1Cc1nc2cc(NC(=O)c3ccc4c(cnn4CCCCCCNc4cccc5c4C(=O)N(C4CCC(=O)NC4=O)C5=O)c3)ccc2[nH]1 (stereo partly shown) [Compound 2]	0.49 ± 0.43	0.1	> 50	19 ± 3.4	1.6 ± 0.01	0.317 ± 0.058	> 50	~68	~0.05	6 ± 0.9	17							
C[C@H]1CCCN1Cc1nc2cc(NC(=O)c3ccc4c(cnn4CCCCNc4cccc5c4C(=O)N(C4CCC(=O)NC4=O)C5=O)c3)ccc2[nH]1 (stereo partly shown) [Compound 3]	2.1 ± 0.03	0.61	> 50	50	1.2 ± 0.05	0.058 ± 0.02	> 50	89	0.072	19 ± 3.8	2.9 ± 1.8							
C[C@H]1CCCN1Cc1nc2cc(NC(=O)c3ccc4c(cnn4CCCCNC(=O)CC45CC6CC(CC(C6)C4)C5)c3)ccc2[nH]1 [Compound 4]	0.98 ± 0.04									1.4 ± 0.46		killing cancerous cells non-selectively within 3 days	1 to 3.8	3.8 ± 1.2	did not reduce ENL			
C[C@H]1CCCN1Cc1nc2cc(NC(=O)c3ccc4c(cnn4C)c3)ccc2[nH]1 [SGC-iMLLT, reference compound]	17 ± 1.1		> 50	> 50	> 50	0.011 ± 0.0006	> 50			> 50	> 50					weak activity	dose-dependently inhibit 1-mediated ENL degradation	no reduction or even an increase
CC(C)C[C@H](NC(=O)[C@H](Cc1ccccc1)NC(=O)c1cnccn1)B(O)O [bortezomib]																	dose-dependently inhibit 1-mediated ENL degradation	
O=C1CCC(N2C(=O)c3ccccc3C2=O)C(=O)N1 (stereo not shown) [thalidomide, reference compound]	> 50		> 50	> 50	> 50		> 50			> 50	> 50						dose-dependently inhibit 1-mediated ENL degradation	did not reduce
